Entries after “also recorded” stand apart in the source; their conditions may differ. Where two headings read alike, the source gives them in different places.
B1: AhpD: Alkyl hydroperoxide reductase D, immunogenic MAP protein, recombinant antigen (protein, UniProt A0QGI9 1-178, looked up)
Alkyl hydroperoxide reductase …: MSVENLKEALPEYAKDLKLNLGSITRTTELNEEQLWGTLLASAAATRNTQVLTEIGAEAADTLSAEAYHAALGAASVMAMNNVFYRGRGFLDGKYDDLRAGLRMNIIGNPGVEKANFELWCFAVSAINGCPDCVASHEHTLREAGVSRETIQEALKAAAIISGVAQAIVTSQTLATAG

How the values were obtained:
[1] = tested on: MAP Dominic (ATCC 43545), isolated from human with Crohn's disease; assay type: cell-based, Mycobacterium avium subspecies paratuberculosis; conditions: vs 3.2% DMSO control
M. avium 101 = assay type: cell-based, M. avium subspecies avium; conditions: for % ΔcGI: vs 3.2% DMSO control
MAP = test: Growth inhibition of MAP (strain not stated or MAP strains in general); conditions: MAP strains in general
[2] = tested on: MAP 303 (ruminant with Johne's disease); test: Radiometric BACTEC growth inhibition, MAP 303; assay type: cell-based, Mycobacterium avium subspecies paratuberculosis; conditions: Bovine MAP 303, vs 3.2% DMSO control
[3] = tested on: MAP UCF 4, isolated from human with Crohn's disease; test: Radiometric BACTEC growth inhibition, MAP UCF4; assay type: cell-based, Mycobacterium avium subspecies paratuberculosis; conditions: for % ΔcGI: Human MAP UCF4, vs 3.2% DMSO control
M. avium ATCC 25291 = assay type: cell-based, M. avium subspecies avium; conditions: for % ΔcGI: M. avium 25291, vs 3.2% DMSO control
MAP ATCC 19698 (bovine) = assay type: cell-based, Mycobacterium avium subspecies paratuberculosis; conditions: for % ΔcGI: Bovine MAP 19698, vs 3.2% DMSO control
MAP and M. avium strains = test: Radiometric BACTEC growth inhibition, all strains tested; assay type: cell-based, Mycobacterium avium; conditions: any strain tested (MAP and M. avium)
MAP and M. tuberculosis = assay type: in vivo, Mice; conditions: 15 μg i.p. in combination with Ag85B-ESAT-6 fusion protein, CFA then IFA; challenge at week 8
[4] = 1 μg/ml, Human MAP Dominic Expt. 1
[5] = 1 μg/ml, Human MAP Dominic Expt. 2
[6] = 4 μg/ml, Human MAP Dominic Expt. 1
[7] = 4 μg/ml, Human MAP Dominic Expt. 2
[8] = 16 μg/ml, Human MAP Dominic Expt. 1
[9] = 16 μg/ml, Human MAP Dominic Expt. 2
[10] = 64 μg/ml, Human MAP Dominic Expt. 1
[11] = 64 μg/ml, Human MAP Dominic Expt. 2

Row | Molecule | % ΔcGI [1, 4] [%] | % ΔcGI [1, 5] [%] | % ΔcGI [1, 6] [%] | % ΔcGI [1, 7] [%] | % ΔcGI [1, 8] [%] | % ΔcGI [1, 9] [%] | % ΔcGI [1, 10] [%] | % ΔcGI [1, 11] [%] | effect on growth, in words (M. avium 101) | % ΔcGI (M. avium 101; 1 μg/ml) [%] | % ΔcGI (M. avium 101; 4 μg/ml) [%] | % ΔcGI (M. avium 101; 16 μg/ml) [%] | % ΔcGI (M. avium 101; 64 μg/ml) [%] | % ΔcGI ([2]; 1 μg/ml) [%] | % ΔcGI ([2]; 4 μg/ml) [%] | % ΔcGI ([2]; 16 μg/ml) [%] | % ΔcGI ([2]; 64 μg/ml) [%] | % ΔcGI ([3]; 1 μg/ml) [%] | % ΔcGI ([3]; 4 μg/ml) [%] | % ΔcGI ([3]; 16 μg/ml) [%] | other results
1 | C[C@@H]1C[C@@H]([C@H](O)CC2CC(=O)NC(=O)C2)C(=O)[C@@H](C)C1 [Cycloheximide, cycloheximide] | 15 | 9 | −4 | 0 | −8 | −4 | −1 | −7 | no affect | 6 | 7 | 1 | 5 | 3 | 4 | −5 | −4 | 1 | −7 | −4 | effect on growth of MAP, in words (MAP): no dose-dependent inhibition on any MAP strain; % ΔcGI ([3]; 64 μg/ml): −12%; % ΔcGI (M. avium ATCC 25291; 1 μg/ml): 0%; % ΔcGI (M. avium ATCC 25291; 4 μg/ml): −8%; % ΔcGI (M. avium ATCC 25291; 16 μg/ml): −7%; % ΔcGI (M. avium ATCC 25291; 64 μg/ml): −57%; %−ΔcGI (percent decrease in cumulative GI) (M. avium ATCC 25291; 64 μg/ml, M. avium ATCC 25291): 57%; % ΔcGI (MAP ATCC 19698 (bovine); 1 μg/ml): −2%; % ΔcGI (MAP ATCC 19698 (bovine); 4 μg/ml): −7%; % ΔcGI (MAP ATCC 19698 (bovine); 16 μg/ml): −12%; % ΔcGI (MAP ATCC 19698 (bovine); 64 μg/ml): −9%
2 | CC[C@@]1([C@@H]2O[C@@H]([C@H]3O[C@@](O)(CO)[C@H](C)C[C@@H]3C)C[C@@H]2C)CC[C@H]([C@]2(C)CC[C@]3(C[C@H](O)[C@@H](C)[C@@H]([C@@H](C)[C@@H](OC)[C@H](C)C(=O)O)O3)O2)O1 [Monensin, monensin] | −52 | −46 | −77 | −71 | −93 | −87 | −94 | −92 | no inhibition | 7 | 3 | 4 | 8 | −21 | −73 | −94 | −97 | −73 | −93 | −96 | effect on growth of MAP, in words (MAP): dose-dependent inhibition against all MAP strains; % ΔcGI ([3]; 64 μg/ml): −97%; % ΔcGI (M. avium ATCC 25291; 1 μg/ml): −25%; % ΔcGI (M. avium ATCC 25291; 4 μg/ml): −54%; % ΔcGI (M. avium ATCC 25291; 16 μg/ml): −69%; % ΔcGI (M. avium ATCC 25291; 64 μg/ml): −87%; % ΔcGI (MAP ATCC 19698 (bovine); 1 μg/ml): −14%; % ΔcGI (MAP ATCC 19698 (bovine); 4 μg/ml): −45%; % ΔcGI (MAP ATCC 19698 (bovine); 16 μg/ml): −62%; % ΔcGI (MAP ATCC 19698 (bovine); 64 μg/ml): −65%
3 | O=C1NC(=O)c2ccccc21 [Phthalimide, phthalimide] | −3 | −1 | 7 | 0 | 0 | 1 | 2 | 4 | no dose-dependent inhibition | −3 | 4 | 2 | −2 | −2 | 3 | −13 | 6 | 4 | −2 | 1 | % ΔcGI ([3]; 64 μg/ml): 3%; % ΔcGI (M. avium ATCC 25291; 1 μg/ml): 2%; % ΔcGI (M. avium ATCC 25291; 4 μg/ml): 4%; % ΔcGI (M. avium ATCC 25291; 16 μg/ml): 1%; % ΔcGI (M. avium ATCC 25291; 64 μg/ml): 12%; effect on growth, in words (M. avium ATCC 25291; M. avium ATCC 25291): no dose-dependent inhibition; % ΔcGI (MAP ATCC 19698 (bovine); 1 μg/ml): −2%; % ΔcGI (MAP ATCC 19698 (bovine); 4 μg/ml): −10%; % ΔcGI (MAP ATCC 19698 (bovine); 16 μg/ml): 1%; % ΔcGI (MAP ATCC 19698 (bovine); 64 μg/ml): 0%; dose-dependent inhibition, in words (MAP and M. avium strains): no dose-dependent effect on any strain tested; dose-dependent inhibition, in words (MAP and M. avium strains; listed as phthalimide): did not exhibit a dose-dependent inhibition of any strain
4 | C=CC[C@@H]1/C=C(\C)C[C@H](C)C[C@H](OC)[C@H]2O[C@@](O)(C(=O)C(=O)N3CCCC[C@H]3C(=O)O[C@H](/C(C)=C/[C@@H]3CC[C@@H](O)[C@H](OC)C3)[C@H](C)[C@@H](O)CC1=O)[C@H](C)C[C@@H]2OC [Tacrolimus, tacrolimus (FK506)] | 28 | 5 | 9 | 9 | 21 | −10 | 0 | −21 | the most inhibition on M. avium 101 of all six strains studied | −34 | −43 | −40 | −52 | 5 | 3 | −5 | −27 | 6 | −19 | −18 | effect on growth of MAP, in words (MAP): the least inhibition of the three “immunosuppressants” studied; % ΔcGI ([3]; 64 μg/ml): −43%; %−ΔcGI (percent decrease in cumulative GI) ([3]; 64 μg/ml, MAP UCF 4): 43%; % ΔcGI (M. avium ATCC 25291; 1 μg/ml): −23%; % ΔcGI (M. avium ATCC 25291; 4 μg/ml): −3%; % ΔcGI (M. avium ATCC 25291; 16 μg/ml): 11%; % ΔcGI (M. avium ATCC 25291; 64 μg/ml): 53%; effect on growth, in words (M. avium ATCC 25291; M. avium ATCC 25291): no inhibition; also recorded: enhanced growth; % ΔcGI (MAP ATCC 19698 (bovine); 1 μg/ml): 8%; % ΔcGI (MAP ATCC 19698 (bovine); 4 μg/ml): −3%; % ΔcGI (MAP ATCC 19698 (bovine); 16 μg/ml): −5%; % ΔcGI (MAP ATCC 19698 (bovine); 64 μg/ml): −26%; %−ΔcGI (percent decrease in cumulative GI) (MAP ATCC 19698 (bovine); 64 μg/ml, MAP ATCC 19698): 26%
5 | B1 |  |  |  |  |  |  |  |  |  |  |  |  |  |  |  |  |  |  |  |  | protection against infection after immunization (MAP and M. tuberculosis): elicits a response capable of protecting against MAP and M. tuberculosis infection
